According to patent US20240124442A1, “TRICYCLIC-AMIDO-BICYCLIC PRMT5 INHIBITORS” (AMGEN INC., priority 2021, published 2024):

Legend:
HCT116 WT cells = experiment: HCT116 WT (parent) cell line proliferation / cell viability (CellTiter-Glo, 6 days); assay type: cell-based; conditions: Homo sapiens, HCT-116, 144 h, 6 days treatment
Method in brief: (§1)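 CellTiter-Glo luminescence read after 6 days of compound exposure in parental and MTAP-null HCT116 cells grown in RPMI 1640/10% FBS. Dilution series: 1:3 steps, 8–9 points, top 1 or 10 μM; or 1:2 steps, 22 points, top 10 or 50 μM. IC50 = curve transit through 50% of control.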

HCT116 MTAP null cells = experiment: HCT116 MTAP null cell line proliferation / cell viability (CellTiter-Glo, 6 days); assay type: cell-based; conditions: 144 h; HCT116 MTAP null cells, 6 days treatment, CellTiter-Glo cell viability; read-out: HCT-116 MTAP null IC50
Method in brief: as §1

| IC50 (HCT116 WT cells) | IC50 (HCT116 MTAP null cells) | SMILES |
| --- | --- | --- |
| 1620 nM | 27 nM | CN(C(=O)c1cc2c(cn1)nc(N)c1cnn(C)c12)[C@@H]1CCc2nc(C(F)(F)F)ccc21 (single isomer, unassigned) [Example 371] |
| 114 nM | 10 nM | CCN(C(=O)c1cc2c(cn1)nc(N)c1cnn(C)c12)[C@@H]1COc2cc(C(F)(F)F)ccc21 (single isomer, unassigned) [Example 372] |
| 235 nM | 4 nM | CN(C(=O)c1cc2c(cc1F)nc(N)c1cnn(C)c12)[C@@H]1COc2cc(C#N)ccc21 (single isomer, unassigned) [Example 373] |
| 22400 nM | 272 nM | CN(C(=O)c1cc2c(cc1F)nc(N)c1cnn(C)c12)[C@H]1COc2cc(C#N)ccc21 (single isomer, unassigned) [Example 374] |
| 568 nM | 9 nM | CN(C(=O)c1cc2c(cc1F)nc(N)c1cnn(C)c12)[C@@H]1CCc2nc(C(F)(F)F)ccc21 (single isomer, unassigned) [Example 375] |
| 12800 nM | 882 nM | CN(C(=O)c1cc2c(cc1F)nc(N)c1cnn(C)c12)[C@H]1CCc2nc(C(F)(F)F)ccc21 (single isomer, unassigned) [Example 376] |
| 595 nM | 10 nM | CN(C(=O)c1cc2c(cc1F)nc(N)c1cnn(C)c12)[C@@H]1COc2nc(C(F)(F)F)ccc21 (single isomer, unassigned) [Example 377] |
| 239 nM | 10 nM | CN(C(=O)c1cc2c(cc1F)nc(N)c1cnn(C)c12)[C@@H]1COc2cc(S(C)(=O)=O)ccc21 (single isomer, unassigned) [Example 378] |
| 13500 nM | 490 nM | CN(C(=O)c1cc2c(cc1F)nc(N)c1cnn(C)c12)[C@H]1COc2cc(S(C)(=O)=O)ccc21 (single isomer, unassigned) [Example 379] |
| 1540 nM | 23 nM | CN(C(=O)c1cc2c(cc1F)nc(N)c1cnn(C)c12)[C@@H]1COc2cc(C(F)(F)F)cc(F)c21 (single isomer, unassigned) [Example 380] |
| 11100 nM | 195 nM | CN(C(=O)c1cc2c(cc1F)nc(N)c1cnn(C)c12)[C@H]1COc2cc(C(F)(F)F)cc(F)c21 (single isomer, unassigned) [Example 381] |
| 63 nM | 4 nM | CN(C(=O)c1cc2c(cc1F)nc(N)c1cnn(C)c12)[C@@H]1COc2cc(S(F)(F)(F)(F)F)ccc21 (single isomer, unassigned) [Example 382] |
| 5660 nM | 380 nM | CN(C(=O)c1cc2c(cc1F)nc(N)c1cnn(C)c12)[C@H]1COc2cc(S(F)(F)(F)(F)F)ccc21 (single isomer, unassigned) [Example 383] |
| 17200 nM | 869 nM | CN(C(=O)c1cc2c(cc1Cl)nc(N)c1cnn(C)c12)[C@]1(C)CCc2nc(C(F)(F)F)ccc21 (single isomer, unassigned) [Example 384] |
| 297 nM | 7 nM | CN(C(=O)c1cc2c(cc1Cl)nc(N)c1cnn(C)c12)[C@@H]1CCc2nc(C(F)(F)F)ccc21 (single isomer, unassigned) [Example 385] |
| 13600 nM | 552 nM | CN(C(=O)c1cc2c(cc1Cl)nc(N)c1cnn(C)c12)[C@H]1CCc2nc(C(F)(F)F)ccc21 (single isomer, unassigned) [Example 386] |
| 136 nM | 5 nM | CN(C(=O)c1cc2c(cc1Cl)nc(N)c1cnn(C)c12)[C@@H]1COc2nc(C(F)(F)F)ccc21 (single isomer, unassigned) [Example 387] |
| 7540 nM | 136 nM | CN(C(=O)c1cc2c(cc1Cl)nc(N)c1cnn(C)c12)[C@H]1COc2nc(C(F)(F)F)ccc21 (single isomer, unassigned) [Example 388] |

| IC50 (HCT116 WT cells) | IC50 (HCT116 MTAP null cells) | SMILES |
| --- | --- | --- |
| 17200 nM | 185 nM | CN(C(=O)c1cc2c(cc1F)nc(N)c1c2cnn1C)[C@@H]1CCc2nc(C(F)(F)F)ccc21 (single isomer, unassigned) [Example 389] |
| 25000 nM | 6550 nM | CN(C(=O)c1cc2c(cc1F)nc(N)c1c2cnn1C)[C@H]1CCc2nc(C(F)(F)F)ccc21 (single isomer, unassigned) [Example 390] |
| 1040 nM | 38 nM | Cc1nn(C)c2c1c(N)nc1cc(F)c(C(=O)N(C)[C@@H]3COc4cc(S(F)(F)(F)(F)F)ccc43)cc12 (single isomer, unassigned) [Example 391] |
| 8300 nM | 995 nM | Cc1nn(C)c2c1c(N)nc1cc(F)c(C(=O)N(C)[C@H]3COc4cc(S(F)(F)(F)(F)F)ccc43)cc12 (single isomer, unassigned) [Example 392] |
| 4070 nM | 136 nM | COc1ccc2c(c1)COC[C@H]2N(C)C(=O)c1ccc2nc(N)c3c(c2c1)COC3 (single isomer, unassigned) [Example 393] |
| 1440 nM | 25 nM | C[C@H]1OCc2c1c(N)nc1ccc(C(=O)N(C)[C@@H]3COCc4cc(Br)ccc43)cc21 (single isomer, unassigned) [Example 394] |
| 10000 nM | 696 nM | C[C@H]1OCc2c1c(N)nc1ccc(C(=O)N(C)[C@H]3COCc4cc(Br)ccc43)cc21 (single isomer, unassigned) [Example 395] |
| 272 nM | 10 nM | CCN(C(=O)c1ccc2nc(N)c3c(c2c1)CO[C@@H]3C)[C@@H]1COCc2cc(Br)ccc21 (single isomer, unassigned) [Example 396] |
| 18700 nM | 599 nM | CCN(C(=O)c1ccc2nc(N)c3c(c2c1)CO[C@@H]3C)[C@H]1COCc2cc(Br)ccc21 (single isomer, unassigned) [Example 397] |
| 911 nM | 20 nM | CN(C(=O)c1cc2c3c(c(N)nc2cn1)COC3)[C@@H]1COCc2cc(Br)ccc21 (single isomer, unassigned) [Example 398] |
| 10000 nM | 1330 nM | CN(C(=O)c1cc2c3c(c(N)nc2cn1)COC3)[C@H]1COCc2cc(Br)ccc21 (single isomer, unassigned) [Example 399] |
| 2110 nM | 50 nM | COc1ccc2c(c1)COC[C@H]2N(C)C(=O)c1cc2c3c(c(N)nc2cc1F)COC3 (single isomer, unassigned) [Example 400] |
| 6570 nM | 148 nM | CN(C(=O)c1cc2c3c(c(N)nc2cc1F)COC3)[C@@H]1CCOc2cc(C(F)(F)F)ccc21 (single isomer, unassigned) [Example 401] |
| 436 nM | 8 nM | CN(C(=O)c1cc2c3c(c(N)nc2cc1Cl)COC3)[C@@H]1COCc2nc(C#N)ccc21 (single isomer, unassigned) [Example 402] |
| 25800 nM | 463 nM | CN(C(=O)c1cc2c3c(c(N)nc2cc1Cl)COC3)[C@H]1COCc2nc(C#N)ccc21 (single isomer, unassigned) [Example 403] |
| 250 nM | 9 nM | CN(C(=O)c1cc2c3c(c(N)nc2cc1Cl)COC3)[C@@H]1COCc2c1ccc(C(F)(F)F)c2F (single isomer, unassigned) [Example 404] |
| 14700 nM | 696 nM | CN(C(=O)c1cc2c3c(c(N)nc2cc1Cl)COC3)[C@H]1COCc2c1ccc(C(F)(F)F)c2F (single isomer, unassigned) [Example 405] |
